Source: US8338411B2, “Compounds” (Sanofi, priority 2007, dated 2012)
In brackets after ≈: the same amount, converted by molar mass.

Assays:
[1] = target: T1, human adenosine A3 receptor (Homo sapiens, UniProt P0DMS8); assay: Human adenosine A3 receptor binding ([125I]AB-MECA, CHO-hA3 membranes); conditions: CHO-hA3 membrane, 0.5 nM [125I]AB-MECA
T1 construct: host or cells: CHO cells (CHO-hA3), membrane preparation
T1 sequence (P0DMS8 1-318): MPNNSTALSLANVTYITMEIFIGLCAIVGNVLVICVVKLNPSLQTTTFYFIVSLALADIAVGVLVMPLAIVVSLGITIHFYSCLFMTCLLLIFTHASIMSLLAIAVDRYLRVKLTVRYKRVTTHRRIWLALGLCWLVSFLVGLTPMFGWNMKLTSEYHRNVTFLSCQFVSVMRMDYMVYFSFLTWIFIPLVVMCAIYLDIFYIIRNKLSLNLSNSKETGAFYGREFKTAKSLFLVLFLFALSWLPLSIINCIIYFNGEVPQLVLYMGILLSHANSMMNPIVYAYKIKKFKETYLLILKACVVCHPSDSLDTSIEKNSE
Experimental: Human Adenosine A3 Receptor Binding
Preparing membrane suspension: ovarium cells of cloned […] hamster expressing human A3 receptor (further: CHO-hA3) are appropriately cultured. Achieving confluent cell layer, the cultivating liquid is removed from the cells by washing them with 37° C. PBS, then the cell are suspended in ice cold PBS, washed 3 times with PBS, centrifuged (1000×g 10 minutes) (Sigma 3K30) and homogenated using teflon homogenizer (B. Braun Potter S) at 1500/min rotation speed, for 15 sec. in the following buffer: 50 mM Tris, 10 mM MgCl2, 1 mM EDTA, pH 8.0. The homogenate is centrifuged (43.000 g, 10 min). The precipitate is suspended in the above buffer, protein concentration 0.1 mg/ml (Bradford method). Aliquots of the membrane preparatum are store at −80° C. hA3-CHO membrane preparation from Perkin Elmer was used alternatively.
Binding protocol: incubate CHO-hA3 membrane preparation (2 μg protein content) in the presence of the test material and 0.5 nM [^125I]AB-MECA (4-amino-3-iodo-benzyl-5′-N-methylcarboxamide-adenosine) (100.000 cpm) in incubation buffer (50 mM Tris, 10 mM MgCl2, 1 mM EDTA, 3 U/mL adenosine deaminase, pH 8.0). Define the non-specific radioligand binding in the presence of 100 μM R-PIA (N^6[L-2-phenylisopropyl]adenosine). Total volume of the reaction is 50 μL for 60 min at room temperature. […] Detect the radioactivity in gamma-counter (1470 Wizard, Wallac). […]
Based on the radioisotope saturation curves using Scatchard analysis (G. Scatchard, Ann. N.Y. Acad. Sci. 51:660, 1949) the dissociation constant (Kd) of the radioligand [^125I]AB-MECA on the CHO-hA3 membrane preparate is determined. From the Kd values, applying the Cheng-Prusoff equation (Y. J. Cheng and W. H. Prusoff, Biochem. Pharmacol. 22:3099, 1973) the affinity constants (Ki) of the test compounds are calculated from their IC50 values.

Solubility = format: physicochemical
[2] = test system: Ovalbumin induced cell migration; assay: Allergic mouse model (ovalbumin induced cell migration); format: in vivo; conditions: % inhibition (full), p.o. mice 24 h, 10 mg/kg CMC
Experimental: Male BalbC mice of 20-25 g body weight are used for the experiments. The animals are first allergized with ovalbumin, then three weeks after the first ovalbumin injection they are involved into the experiment. On the day of the experiment the mice are treated (per os) with the experimental material (or with the vehicle containing no active ingredient), then after a suitable waiting period they are narcotized. After surgical opening of the trachea, 10 microliter of 1% ovalbumin solution is injected into the trachea.
The control group receives vehicle (physiological salt solution) into the trachea. After surgical closing of the trachea and treatment of the wound, the animals are separated and kept under their usual life conditions for 24 h.
After 24 hours the animals are over narcotized, the trachea is opened again and the lung is washed with buffer solution. The buffer solution is centrifuged, the cell sediment is resuspended again, and then the cells are counted. The total cell number is determined and the different leukocytes are sorted on the bases of the morphology. To determine the effectivity of the experimental material, the inhibition % is calculated in comparison to the control group. To determine the significance of the effect, statistical evaluation is carried out.

IC50 [1]	solubility (Solubility; pH 1, simulated gastric fluid)	solubility (Solubility; pH 6.5, aqueous buffer)	solubility (Solubility; pH 7.5, aqueous buffer)	Structure (SMILES)	Inhibition of cell migration [2]
0.038 µM	500 µg/mL (≈ 1020 µM)	0.2 µg/mL (≈ 0.408 µM)	2 µg/mL (≈ 4.08 µM)	COc1cccc(-c2nc3c(C#N)c(NCc4ccccc4)c4cc(N5CCOCC5)ccc4n3n2)c1 [Example 1, 2-(3-methoxyphenyl)-7-(morpholin-4-yl)-9-benzylamino-10-cyano-s-triazolo[1,5-a]quinoline]	81%
0.0077 µM	3000 µg/mL (≈ 6330 µM)	0.5 µg/mL (≈ 1.06 µM)	5 µg/mL (≈ 10.6 µM)	CN1CCN(c2ccc3c(c2)c(NCc2ccccc2)c(C#N)c2nc(-c4ccccc4)nn23)CC1 [Example 17]	88%
0.011 µM	2500 µg/mL (≈ 5090 µM)	0.5 µg/mL (≈ 1.02 µM)	13 µg/mL (≈ 26.4 µM)	CN1CCN(c2ccc3c(c2)c(NCc2ccccc2)c(C#N)c2nc(-c4ccc(F)cc4)nn23)CC1 [Example 18]	57%
